Results as given in patent US11466066B2, “Variants of human BMP7 protein” (ELI LILLY AND COMPANY, priority 2017, dated 2022).

Assays:
Format in all cases: cell-based
[1] = tested on: ADSC/ECFC co-culture stimulated with VEGF; experiment: VEGF-driven cord formation; details: 100 nM; 10 ng/ml VEGF; 96 hours
Source text: (§1) An in vitro endothelial cord formation assay, a surrogate of angiogenesis, may be used to investigate the role of human BMP7 proteins on various growth factor established cords including, but not limited to, VEGF, basic FGF, and EGF established cords. Endothelial cord forming cells (ECFCs; passage 4-10 suitable for cord formation) may be cultured in EGM-2 MV (Lona) media containing a final concentration of 10% FBS and passaged onto type 1 collagen (fibrillar) coated flasks prior to seeding into the cord formation assay in vitro. […]
An ADSC/ECFC co-culture was unstimulated (basal) or stimulated with 10 ng/ml VEGF and treated simultaneously with PBS or 100 ng/ml human pro-BMP7 variant F9 or 100 nM sunitinib for 96 hours prior to immunohistochemistry for CD31 (green), α-smooth muscle actin (red), and Hoechst 33342 to stain all nuclei (blue). Resulting CD31-positive endothelial cords were visualized and quantitated using high content imaging. […]

[2] = tested on: ADSC/ECFC co-culture stimulated with bFGF; experiment: FGF-driven cord formation; details: 100 nM; 10 ng/ml bFGF; 96 hours
Source text: as §1
An ADSC/ECFC co-culture was unstimulated (basal) or stimulated with 10 ng/ml bFGF and treated simultaneously with PBS or 100 ng/ml human pro-BMP7 variant F9 or 100 nM sunitinib for 96 hours prior to immunohistochemistry for CD31 (green), α-smooth muscle actin (red), and Hoechst 33342 to stain all nuclei (blue). Resulting CD31-positive endothelial cords were visualized and quantitated using high content imaging. […]

[3] = tested on: ADSC/ECFC co-culture stimulated with EGF; experiment: EGF-driven cord formation; details: 100 nM; 10 ng/ml EGF; 96 hours
Source text: as §1
An ADSC/ECFC co-culture was unstimulated (basal) or stimulated with 10 ng/ml EGF and treated simultaneously with PBS or 100 ng/ml human pro-BMP7 variant F9 or 100 nM sunitinib for 96 hours prior to immunohistochemistry for CD31 (green), α-smooth muscle actin (red), and Hoechst 33342 to stain all nuclei (blue). Resulting CD31-positive endothelial cords were visualized and quantitated using high content imaging. […]

## CCN(CC)CCNC(=O)c1c(C)[nH]c(/C=C2\C(=O)Nc3ccc(F)cc32)c1C [sunitinib, reference compound]
[1]
  Connected Tube Area - VEGF (% PBS): 26.14 ± 9.88%
[2]
  Connected Tube Area - FGF (% PBS): 43.01 ± 18.28%
[3]
  Connected Tube Area - EGF (% PBS): 9.89 ± 8.059%
